From patent EP4813463A2, “TYK2 INHIBITORS AND COMPOSITIONS AND METHODS THEREOF” (Lynk Pharmaceuticals Co. Ltd., priority 2023, dated 2024)

These compounds were tested against T1, TYK2-JH2 domain (Homo sapiens, UniProt P29597) (assay: Binding activity test for JH2 domain of TYK2 (Tb-antibody/tracer FRET)). Details: JH2 domain enzyme; 60 min at 25°C, then 4°C overnight; read-out: TYK2 JH2 Binding IC50.
T1 construct: JAK1-JH2 domain or TYK2-JH2 domain enzyme in assay buffer
Method: Binding Activity test for JH2 domain of JAK1 and TYK2 […] Add 8μL/well in echo source plate, echo will add 75nL/well with 3-fold serial dilution for 11 points in assay plate. 75nL DMSO for high control and low control. […] For low control, add 5μL/well assay buffer. And then spin down at 1000rpm and centrifuge for 30 seconds. After enzyme system prepared, add 5μL of Tb-antibody solution into each well of assay plate. Spin down at 1000 rpm and centrifuge for 30sec. After Tb-antibody added, also add 5μL of tracer into the assay plate. Spin down at 1000rpm and centrifuge for 30sec. Incubate for […] at 25°C firstly and then continue to incubate the plate at 4°C overnight. Read by envision in FRET mode. The Luminescence value was recorded by a multi-label reader Envision (PerkinElmer). […] Table 2. IC50 on JH2 domain activity (nM)

T1 sequence (P29597 589-875 limits assumed): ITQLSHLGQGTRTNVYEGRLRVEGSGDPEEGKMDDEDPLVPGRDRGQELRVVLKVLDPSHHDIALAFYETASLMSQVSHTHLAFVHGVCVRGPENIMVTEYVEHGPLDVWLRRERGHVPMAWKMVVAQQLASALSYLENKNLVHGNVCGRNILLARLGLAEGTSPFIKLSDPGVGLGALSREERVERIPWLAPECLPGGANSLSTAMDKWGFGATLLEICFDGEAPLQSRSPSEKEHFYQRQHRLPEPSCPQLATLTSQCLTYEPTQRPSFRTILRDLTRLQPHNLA

Row | IC50 | Compound
1 | > 298 nM | COC(=O)c1c(Nc2nn(C)c3ccc(C(OC)C(F)(F)F)c(OC)c23)cc(NC(=O)C2CC2)nc1F (single isomer, unassigned) [Example 98A, Methyl (R*)-6-(cyclopropanecarboxamido)-2-fluoro-4-((4-methoxy-1-methyl-5-(2,2,2-trifluoro-1-methoxyethyl)-1H-indazol-3-yl)amino)nicotinate]
2 | 3.88 nM | COC(=O)c1c(Nc2nn(C)c3ccc(C(OC)C(F)(F)F)c(OC)c23)cc(NC(=O)C2CC2)nc1F (single isomer, unassigned) [Example 98B, Methyl (S*)-6-(cyclopropanecarboxamido)-2-fluoro-4-((4-methoxy-1-methyl-5-(2,2,2-trifluoro-1-methoxyethyl)-1H-indazol-3-yl)amino)nicotinate]
3 | 1.22 nM | COC(=O)c1cnc(NC(=O)C2CC2)cc1Nc1nn(C)c2ccc(C(OC)C(C)(F)F)c(OC)c12 (single isomer, unassigned) [Example 115B, Methyl (R*)-6-(cyclopropanecarboxamido)-4-((5-(2,2-difluoro-1-methoxypropyl)-4-methoxy-1-methyl-1H-indazol-3-yl)amino)nicotinate]
4 | 1.41 nM | [2H]C([2H])([2H])OC(c1ccc2c(c(Nc3cc(NC(=O)C4CC4)ncc3C(=O)OC)nn2CCOC)c1OC)C(F)(F)F (single isomer, unassigned) [Example 157B, Methyl (R*)-6-(cyclopropanecarboxamido)-4-((4-methoxy-1-(2-methoxyethyl)-5-(2,2,2-trifluoro-1-methoxyethyl)-1H-indazol-3-yl)amino)nicotinate]
5 | 0.627 nM | [2H]C([2H])([2H])O[C@H](c1ccc2c(c(Nc3cc(NC(=O)C4CC4)ncc3C(=O)OC)nn2C([2H])([2H])[2H])c1OC)C(F)(F)F [Example 53A, Methyl (R)-6-(cyclopropanecarboxamido)-4-((4-methoxy-1-(methyl-d3)-5-(2,2,2-trifluoro-1-(methoxy-d3)ethyl)-1H-indazol-3-yl)amino)nicotinate]
6 | 2.37 nM | [2H]C([2H])([2H])NC(=O)c1cnc(NC(=O)C2CC2)cc1Nc1cnn2ccc(C)c(NC)c12 [Example 97, 6-(Cyclopropanecarbonylamino)-4-[[5-methyl-4-(methylamino)pyrazolo [1,5-a]pyridin-3-yl]amino]-N-(trideuteriomethyl)pyridine-3-carboxamide]
7 | 1.79 nM | COC(=O)c1cnc(NC(=O)C2CC2)cc1Nc1cnn2ccc(C3CCCO3)c(OC)c12 (stereo not drawn) [Example 99, Methyl 6-(cyclopropanecarboxamido)-4-((4-methoxy-5-(tetrahydrofuran-2-yl)pyrazolo[1,5-a]pyridin-3-yl)amino)nicotinate]
8 | > 298 nM | COC(=O)c1nnc(NC(=O)C2CC2)cc1Nc1nn(C)c2ccc(C(OC)C(F)(F)F)c(OC)c12 (stereo not drawn) [Example 101, Methyl 6-(cyclopropanecarboxamido)-4-((4-methoxy-1-methyl-5-(2,2,2-trifluoro-1-methoxyethyl)-1H-indazol-3-yl)amino)pyridazine-3-carboxylate]
9 | 5.84 nM | COC(=O)c1cnc(NC(=O)C2CC2)cc1Nc1ncn2ccc(C)c(OC)c12 [Example 103, Methyl 6-(cyclopropanecarboxamido)-4-((8-methoxy-7-methylimidazo[1,5-a]pyridin-1-yl)amino)nicotinate]
10 | 13.7 nM | COC(=O)c1cnc(NC(=O)C2CC2)cc1Nc1nn(COCC[Si](C)(C)C)c2ccc(C(OC)C(F)(F)F)c(OC)c12 (stereo not drawn) [Example 104, Methyl 6-(cyclopropanecarboxamido)-4-((4-methoxy-5-(2,2,2-trifluoro-1-methoxyethyl)-1-((2-(trimethylsilyl)ethoxy)methyl)-1H-indazol-3-yl)amino)nicotinate]
11 | 0.836 nM | COC(=O)c1cnc(NC(=O)C2CC2)cc1Nc1nccc2c1N(C)[C@@H](C)c1nn(C)nc1-2 [Example 109, Methyl (S)-6-(cyclopropanecarboxamido)-4-((2,4,5-trimethyl-4,5-dihydro-2H-[1,2,3]triazolo[4,5-c][1,7]naphthyridin-6-yl)amino)nicotinate]
12 | 2.47 nM | COC(=O)c1cnc(NC(=O)C2CC2)cc1Nc1ncn2ccc(C(OC)C(F)(F)F)c(OC)c12 (stereo not drawn) [Example 110, Methyl 6-(cyclopropanecarboxamido)-4-((8-methoxy-7-(2,2,2-trifluoro-1-methoxyethyl)imidazo[1,5-a]pyridin-1-yl)amino)nicotinate]
13 | 0.943 nM | COC(=O)c1cnc(NC(=O)C2CC2)cc1Nc1nn(C)c2ccc(C(OC)C(C)C)c(OC)c12 (stereo not drawn) [Example 118, Methyl 6-(cyclopropanecarboxamido)-4-((4-methoxy-5-(1-methoxy-2-methylpropyl)-1-methyl-1H-indazol-3-yl)amino)nicotinate]
14 | 0.308 nM | COC(=O)c1cnc(NC(=O)C2CC2)cc1Nc1nn(C2CC2)c2ccc(C(OC)C(F)(F)F)c(OC)c12 (stereo not drawn) [Example 119, Methyl 6-(cyclopropanecarboxamido)-4-((1-cyclopropyl-4-methoxy-5-(2,2,2-trifluoro-1-methoxyethyl)-1H-indazol-3-yl)amino)nicotinate]
15 | 0.405 nM | CCC(OC)c1ccc2c(c(Nc3cc(NC(=O)C4CC4)ncc3C(=O)OC)nn2C)c1OC (stereo not drawn) [Example 121, Methyl 6-(cyclopropanecarboxamido)-4-((4-methoxy-5-(1-methoxypropyl)-1-methyl-1H-indazol-3-yl)amino)nicotinate]
16 | 90.3 nM | COC(=O)c1cnc(NC(=O)C2CC2)cc1Nc1c2c(OC)c(C(C)C(F)(F)F)ccc2nn1C (stereo not drawn) [Example 124, Methyl 6-(cyclopropanecarboxamido)-4-((4-methoxy-2-methyl-5-(1,1,1-trifluoropropan-2-yl)-2H-indazol-3-yl)amino)nicotinate]
17 | 1.79 nM | COC(=O)c1cnc(NC(=O)C2CC2)cc1Nc1nn(C)c2ccc(C#N)c(OC)c12 [Example 126, Methyl 4-((5-cyano-4-methoxy-1-methyl-1H-indazol-3-yl)amino)-6-(cyclopropanecarboxamido)nicotinate]
18 | 12.7 nM | COC(=O)c1cnc(NC(=O)C2CC2)cc1Nc1ccn2ncc(C(OC)C(F)(F)F)c2c1OC (stereo not drawn) [Example 131, Methyl 6-(cyclopropanecarboxamido)-4-((4-methoxy-3-(2,2,2-trifluoro-1-methoxyethyl)pyrazolo[1,5-a]pyridin-5-yl)amino)nicotinate]
19 | 1.52 nM | COC(=O)c1cnc(NC(=O)C2CC2)cc1Nc1nn(CC#N)c2ccc(C(OC)C(F)(F)F)c(OC)c12 (stereo not drawn) [Example 134, Methyl 4-((1-(cyanomethyl)-4-methoxy-5-(2,2,2-trifluoro-1-methoxyethyl)-1H-indazol-3-yl)amino)-6-(cyclopropanecarboxamido)nicotinate]
20 | 1.22 nM | COC(=O)c1cnc(NC(=O)C2CC2)cc1Nc1nn(C)c2cnc(C(OC)C(F)(F)F)c(OC)c12 (stereo not drawn) [Example 138, Methyl 6-(cyclopropanecarbonylamino)-4-[[4-methoxy-1-methyl-5-(2,2,2-trifluoro-1-methoxy-ethyl)pyrazolo[3,4-c]pyridin-3-yl]amino]pyridine-3-carboxylate]
21 | 34.7 nM | CCC(O)c1cnc(NC(=O)C2CC2)cc1Nc1nn(C)c2ccc([C@H](OC)C(F)(F)F)c(OC)c12 (stereo partly drawn) [Example 143, N-(5-(1-hydroxypropyl)-4-((4-methoxy-1-methyl-5-((S)-2,2,2-trifluoro-1-methoxyethyl)-1H-indazol-3-yl)amino)pyridin-2-yl)cyclopropanecarboxamide]
22 | 42.1 nM | CCC(F)c1cnc(NC(=O)C2CC2)cc1Nc1nn(C)c2ccc([C@H](OC)C(F)(F)F)c(OC)c12 (stereo partly drawn) [Example 144, N-(5-(1-fluoropropyl)-4-((4-methoxy-1-methyl-5-((S)-2,2,2-trifluoro-1-methoxyethyl)-1H-indazol-3-yl)amino)pyridin-2-yl)cyclopropanecarboxamide]
23 | 9.8 nM | COC(=O)c1cnc(NC(=O)C2CC2)cc1Nc1nn(C)c2cccc(OC)c12 [Example 146, Methyl 6-(cyclopropanecarboxamido)-4-((4-methoxy-1-methyl-1H-indazol-3-yl)amino)nicotinate]

Row | Compound | IC50
24 | CCOC(c1ccc2c(c(Nc3cc(NC(=O)C4CC4)ncc3C(=O)OC)nn2C)c1OC)C(F)(F)F (racemic) [Example 106, Methyl 6-(cyclopropanecarboxamido)-4-((5-(1-ethoxy-2,2,2-trifluoroethyl)-4-methoxy-1-methyl-1H-indazol-3-yl)amino)nicotinate] | 1.31 nM
25 | CCOC(c1ccc2c(c(Nc3cc(NC(=O)C4CC4)ncc3C(=O)OC)nn2C)c1OC)C(F)(F)F (single isomer, unassigned) [Example 106A, Methyl (R*)-6-(cyclopropanecarboxamido)-4-((5-(1-ethoxy-2,2,2-trifluoroethyl)-4-methoxy-1-methyl-1H-indazol-3-yl)amino)nicotinate] | 4.31 nM

Same assay, conditions: read-out: TYK2 JH2 Binding IC50; JH2 domain enzyme; 60 min at 25°C, then 4°C overnight

Row | Compound | IC50
26 | COC(=O)c1cnc(NC(=O)[C@@H]2C[C@@H]2F)cc1Nc1nn(C)c2ccc(C(O)C(F)(F)F)c(OC)c12 (single isomer, unassigned) [Example 122B, Methyl 6-((1S,2S)-2-fluorocyclopropane-1-carboxamido)-4-((4-methoxy-1-methyl-5-((R*)-2,2,2-trifluoro-1-hydroxyethyl)-1H-indazol-3-yl)amino) nicotinate] | 0.733 nM
27 | [2H]C([2H])([2H])OC(=O)c1cnc(NC(=O)C2CC2)cc1Nc1ncc2ccn(C([2H])([2H])C([2H])([2H])[2H])c2c1OC([2H])([2H])[2H] [Example 61, Methyl-d3 6-(cyclopropanecarboxamido)-4-((1-(ethyl-d5)-7-(methoxy-d3)-1H-pyrrolo[3,2-c]pyridin-6-yl)amino) nicotinate] | 1.36 nM
